Reference: PubChem BioAssay AID1845205 (Molecular Pharmacology Branch, DTP, NCI, 2023)

Test system: MPNST multicellular tumor spheroids, viability % test/control
Assay: Anticancer human tumor MPNST cell line growth inhibition;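 further: spheroids exposed to agents for seven days after three days of growth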;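 on viability, T/C: luminescence signal used as surrogate for viable cell amount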
Conditions: for IC50: curve of first compound; for viability, T/C: stronger effect = lower value
Procedure, shortened: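 Complex tumor spheroids combined malignant cells with endothelial cells and mesenchymal stem cells. DNA-damaging drugs and DNA repair inhibitors were tested alone and in combination, at half-log dilutions down from clinical Cmax (top 10 microM if Cmax unknown), 0.25% DMSO final.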

[1] = second compound 0.003 µM, first compound 0.0316 µM
[2] = second compound 0.003 µM, first compound 0.1 µM
[3] = second compound 0.003 µM, first compound 0.316 µM
[4] = second compound 0.003 µM, first compound 1 µM
[5] = second compound 0.003 µM, first compound 3.16 µM
[6] = second compound 0.003 µM, first compound 10 µM
[7] = second compound 0.00949 µM, first compound 0.0316 µM
[8] = second compound 0.00949 µM, first compound 0.1 µM
[9] = second compound 0.00949 µM, first compound 0.316 µM
[10] = second compound 0.00949 µM, first compound 1 µM
[11] = second compound 0.00949 µM, first compound 3.16 µM
[12] = second compound 0.00949 µM, first compound 10 µM
[13] = second compound 0.03 µM, first compound 0.0316 µM
[14] = second compound 0.03 µM, first compound 0.1 µM
[15] = second compound 0.03 µM, first compound 0.316 µM
[16] = second compound 0.03 µM, first compound 1 µM
[17] = second compound 0.03 µM, first compound 3.16 µM
[18] = second compound 0.03 µM, first compound 10 µM
[19] = second compound 0.0949 µM, first compound 0.0316 µM
[20] = second compound 0.0949 µM, first compound 0.1 µM
[21] = second compound 0.0949 µM, first compound 0.316 µM
[22] = second compound 0.0949 µM, first compound 1 µM
[23] = second compound 0.0949 µM, first compound 3.16 µM
[24] = second compound 0.0949 µM, first compound 10 µM
[25] = second compound 0.3 µM, first compound 0.0316 µM
[26] = second compound 0.3 µM, first compound 0.1 µM
[27] = second compound 0.3 µM, first compound 0.316 µM
[28] = second compound 0.3 µM, first compound 1 µM
[29] = second compound 0.3 µM, first compound 3.16 µM
[30] = second compound 0.3 µM, first compound 10 µM
[31] = second compound 30 pM, first compound 0.00949 µM
[32] = second compound 30 pM, first compound 0.03 µM
[33] = second compound 30 pM, first compound 0.0949 µM
[34] = second compound 30 pM, first compound 0.3 µM
[35] = second compound 30 pM, first compound 0.949 µM
[36] = second compound 30 pM, first compound 3 µM
[37] = second compound 94.9 pM, first compound 0.00949 µM
[38] = second compound 94.9 pM, first compound 0.03 µM
[39] = second compound 94.9 pM, first compound 0.0949 µM
[40] = second compound 94.9 pM, first compound 0.3 µM
[41] = second compound 94.9 pM, first compound 0.949 µM
[42] = second compound 94.9 pM, first compound 3 µM
[43] = second compound 0.0003 µM, first compound 0.00949 µM
[44] = second compound 0.0003 µM, first compound 0.03 µM
[45] = second compound 0.0003 µM, first compound 0.0949 µM
[46] = second compound 0.0003 µM, first compound 0.3 µM
[47] = second compound 0.0003 µM, first compound 0.949 µM
[48] = second compound 0.0003 µM, first compound 3 µM
[49] = second compound 0.000949 µM, first compound 0.00949 µM
[50] = second compound 0.000949 µM, first compound 0.03 µM
[51] = second compound 0.000949 µM, first compound 0.0949 µM
[52] = second compound 0.000949 µM, first compound 0.3 µM
[53] = second compound 0.000949 µM, first compound 0.949 µM
[54] = second compound 0.000949 µM, first compound 3 µM
[55] = second compound 0.003 µM, first compound 0.00949 µM
[56] = second compound 0.003 µM, first compound 0.03 µM
[57] = second compound 0.003 µM, first compound 0.0949 µM
[58] = second compound 0.003 µM, first compound 0.3 µM
[59] = second compound 0.003 µM, first compound 0.949 µM
[60] = second compound 0.003 µM, first compound 3 µM

CC(C)n1c(=O)n(C)c2cnc3cc(F)c(-c4ccc(OCCCN5CCCCC5)nc4)cc3c21 + CC[C@@]1(O)C(=O)OCc2c1cc1n(c2=O)Cc2cc3c(CN(C)C)c(O)ccc3nc2-1
IC50 (second compound 0.003 µM): 6260 nM
IC50 (second compound 0.00949 µM): < 31.6 nM
IC50 (second compound 0.03 µM): < 31.6 nM
IC50 (second compound 0.0949 µM): < 31.6 nM
IC50 (second compound 0.3 µM): < 31.6 nM
viability, T/C [1]: 65.9%
viability, T/C [2]: 52%
viability, T/C [3]: 79.9%
viability, T/C [4]: 97.3%
viability, T/C [5]: 59.6%
viability, T/C [6]: 38.8%
viability, T/C [7]: 46.8%
viability, T/C [8]: 41.3%
viability, T/C [9]: 50.5%
viability, T/C [10]: 41.3%
viability, T/C [11]: 50.3%
viability, T/C [12]: 34.6%
viability, T/C [13]: 35.4%
viability, T/C [14]: 33.4%
viability, T/C [15]: 38.9%
viability, T/C [16]: 44.5%
viability, T/C [17]: 44.1%
viability, T/C [18]: 31.8%
viability, T/C [19]: 34.6%
viability, T/C [20]: 35.2%
viability, T/C [21]: 35.5%
viability, T/C [22]: 39.8%
viability, T/C [23]: 37.8%
viability, T/C [24]: 32.6%
viability, T/C [25]: 30.2%
viability, T/C [26]: 29%
viability, T/C [27]: 31.4%
viability, T/C [28]: 34.9%
viability, T/C [29]: 36.5%
viability, T/C [30]: 29.1%

COc1ccc([C@@H](O)c2cc(-c3ncnc4cc(N5CCOCC5)ccc34)c(F)cc2Cl)nn1 + CC[C@@]1(O)C(=O)OCc2c1cc1n(c2=O)Cc2cc3c(CN(C)C)c(O)ccc3nc2-1
IC50 (second compound 0.003 µM): 1170 nM
IC50 (second compound 0.00949 µM): 641 nM
IC50 (second compound 0.03 µM): < 31.6 nM
IC50 (second compound 0.0949 µM): < 31.6 nM
IC50 (second compound 0.3 µM): < 31.6 nM
viability, T/C [1]: 96.3%
viability, T/C [2]: 77.6%
viability, T/C [3]: 69.2%
viability, T/C [4]: 55.6%
viability, T/C [5]: 33.5%
viability, T/C [6]: 14.6%
viability, T/C [7]: 78.4%
viability, T/C [8]: 81.6%
viability, T/C [9]: 57.7%
viability, T/C [10]: 41%
viability, T/C [11]: 33%
viability, T/C [12]: 17.3%
viability, T/C [13]: 42.7%
viability, T/C [14]: 42.9%
viability, T/C [15]: 42.6%
viability, T/C [16]: 36.1%
viability, T/C [17]: 21%
viability, T/C [18]: 16.4%
viability, T/C [19]: 44.7%
viability, T/C [20]: 39.2%
viability, T/C [21]: 37.6%
viability, T/C [22]: 34.7%
viability, T/C [23]: 22.8%
viability, T/C [24]: 15.7%
viability, T/C [25]: 36.1%
viability, T/C [26]: 39.7%
viability, T/C [27]: 32.6%
viability, T/C [28]: 27.6%
viability, T/C [29]: 18%
viability, T/C [30]: 10.3%

CNCc1ccc(-c2cc(-c3nc(-c4ccc(S(=O)(=O)C(C)C)cc4)cnc3N)on2)cc1 + COc1cc2c(cc1O)CCNC21CSC2c3c(OC(C)=O)c(C)c4c(c3C(COC1=O)N1C(O)C3Cc5cc(C)c(OC)c(O)c5C(C21)N3C)OCO4
IC50 (second compound 30 pM): 283 nM
IC50 (second compound 94.9 pM): > 3000 nM
IC50 (second compound 0.0003 µM): 96.6 nM
IC50 (second compound 0.000949 µM): < 9.49 nM
IC50 (second compound 0.003 µM): < 9.49 nM
viability, T/C [31]: 83.5%
viability, T/C [32]: 105%
viability, T/C [33]: 63.5%
viability, T/C [34]: 54.8%
viability, T/C [35]: 47.2%
viability, T/C [36]: 45.9%
viability, T/C [37]: 79%
viability, T/C [38]: 74%
viability, T/C [39]: 70.4%
viability, T/C [40]: 55.6%
viability, T/C [41]: 49.7%
viability, T/C [42]: 53.6%
viability, T/C [43]: 68.1%
viability, T/C [44]: 70.8%
viability, T/C [45]: 50.1%
viability, T/C [46]: 42.4%
viability, T/C [47]: 46.3%
viability, T/C [48]: 46.8%
viability, T/C [49]: 39%
viability, T/C [50]: 39.5%
viability, T/C [51]: 38.5%
viability, T/C [52]: 36.2%
viability, T/C [53]: 46%
viability, T/C [54]: 48.6%
viability, T/C [55]: 6.71%
viability, T/C [56]: 17.8%
viability, T/C [57]: 18.7%
viability, T/C [58]: 8.25%
viability, T/C [59]: 12.3%
viability, T/C [60]: 8.15%

Cn1ncnc1[C@H]1c2n[nH]c(=O)c3cc(F)cc(c23)N[C@@H]1c1ccc(F)cc1 + COc1cc2c(cc1O)CCNC21CSC2c3c(OC(C)=O)c(C)c4c(c3C(COC1=O)N1C(O)C3Cc5cc(C)c(OC)c(O)c5C(C21)N3C)OCO4
IC50 (second compound 30 pM): 1520 nM
IC50 (second compound 94.9 pM): 259 nM
IC50 (second compound 0.0003 µM): 68.9 nM
IC50 (second compound 0.000949 µM): < 9.49 nM
IC50 (second compound 0.003 µM): < 9.49 nM
viability, T/C [31]: 64.4%
viability, T/C [32]: 75.2%
viability, T/C [33]: 58.3%
viability, T/C [34]: 59.1%
viability, T/C [35]: 52.7%
viability, T/C [36]: 46%
viability, T/C [37]: 68.9%
viability, T/C [38]: 86.8%
viability, T/C [39]: 67%
viability, T/C [40]: 49.9%
viability, T/C [41]: 45.3%
viability, T/C [42]: 46%
viability, T/C [43]: 53.1%
viability, T/C [44]: 53.6%
viability, T/C [45]: 47%
viability, T/C [46]: 49%
viability, T/C [47]: 43%
viability, T/C [48]: 41.9%
viability, T/C [49]: 51.6%
viability, T/C [50]: 41.6%
viability, T/C [51]: 40.9%
viability, T/C [52]: 44.4%
viability, T/C [53]: 38%
viability, T/C [54]: 29.9%
viability, T/C [55]: 13.7%
viability, T/C [56]: 15.3%
viability, T/C [57]: 9.43%
viability, T/C [58]: 9.63%
viability, T/C [59]: 6.89%
viability, T/C [60]: 2.68%

O=C(c1cc(Cc2n[nH]c(=O)c3ccccc23)ccc1F)N1CCN(C(=O)C2CC2)CC1 + COc1cc2c(cc1O)CCNC21CSC2c3c(OC(C)=O)c(C)c4c(c3C(COC1=O)N1C(O)C3Cc5cc(C)c(OC)c(O)c5C(C21)N3C)OCO4
IC50 (second compound 30 pM): 5280 nM
IC50 (second compound 94.9 pM): 1620 nM
IC50 (second compound 0.0003 µM): 153 nM
IC50 (second compound 0.000949 µM): < 94.9 nM
IC50 (second compound 0.003 µM): < 94.9 nM
viability, T/C [33]: 91.7%
viability, T/C [34]: 79.2%
viability, T/C [35]: 57.2%
viability, T/C [36]: 72.7%
viability, T/C (second compound 30 pM, first compound 9.49 µM): 38.3%
viability, T/C (second compound 30 pM, first compound 30 µM): 25.2%
viability, T/C [39]: 50.1%
viability, T/C [40]: 57.1%
viability, T/C [41]: 70%
viability, T/C [42]: 39.7%
viability, T/C (second compound 94.9 pM, first compound 9.49 µM): 29.7%
viability, T/C (second compound 94.9 pM, first compound 30 µM): 25.1%
viability, T/C [45]: 53.5%
viability, T/C [46]: 44.5%
viability, T/C [47]: 40.3%
viability, T/C [48]: 34.5%
viability, T/C (second compound 0.0003 µM, first compound 9.49 µM): 28.6%
viability, T/C (second compound 0.0003 µM, first compound 30 µM): 25.3%
viability, T/C [51]: 26.8%
viability, T/C [52]: 29.3%
viability, T/C [53]: 25.9%
viability, T/C [54]: 24.8%
viability, T/C (second compound 0.000949 µM, first compound 9.49 µM): 21.5%
viability, T/C (second compound 0.000949 µM, first compound 30 µM): 14.8%
viability, T/C [57]: 7.65%
viability, T/C [58]: 7.5%
viability, T/C [59]: 5.51%
viability, T/C [60]: 6.23%
viability, T/C (second compound 0.003 µM, first compound 9.49 µM): 3.48%
viability, T/C (second compound 0.003 µM, first compound 30 µM): 2.13%
